From US20210324357A1, “DEGRADATION DOMAIN MODIFICATIONS FOR SPATIO-TEMPORAL CONTROL OF RNA-GUIDED NUCLEASES” (THE BRIGHAM AND WOMEN'S HOSPITAL, INC., priority 2018, published 2021)
Entries after “also recorded” stand apart in the source; their conditions may differ.

Columns and labels:
[1] = tested on: FKBP-Cas9 in U2OS.eGFP-PEST cells; test: Analysis of Cas9 nuclease activity via genomic eGFP-PEST disruption in U2OS cells; format: cell-based, human; conditions: for NtLp 2xFKBP Cas9 activity (% eGFP disruption): increasing amount of degrader 1.4-1000 nM
Text: In some embodiments, a quantitative human cell-based reporter assay that enables rapid quantitation of targeted nuclease activities is used to characterize off-target cleavage of Cas9-based RNA guided endonucleases. In this assay, the activities of nucleases targeted to a single integrated EGFP reporter gene can be quantified by assessing loss of fluorescence signal in human U2OS.EGFP cells caused by inactivating frameshift insertion/deletion (indel) mutations introduced by error prone non-homologous end-joining (NHEJ) repair of nuclease-induced double-stranded breaks (DSBs).
In one protocol, U2OS.EGFP cells harboring a single integrated copy of an EGFP-PEST fusion gene are cultured (see e.g., Reyon et al., Nat Biotech 30, 460-465 (2012), which is herein incorporated by reference in its entirety). For transfections, 200,000 cells are nucleofected with gRNA expression plasmid and pJDS246 together with 30 ng of a Td-tomato-encoding plasmid using the SE Cell Line 4D-Nucleofector™ X Kit (Lonza) according to the manufacturer's protocol. Cells are analyzed 2 days post-transfection using a BD LSRII flow cytometer. Transfections for optimizing gRNA/Cas9 plasmid concentration are performed in triplicate and all other transfections are performed in duplicate.
In plasmid delivery, approximately 200,000 U20S.eGFP-PEST cells were nucleofected with 300 ng of Cas9 and sgRNA expression plasmids (NtLp 2xFKBP, NtCt 2xFKBP, LpCt 2xFKBP, and 3xFKBP) using the SE Cell Line 4D-Nucleofector X Kit (Lonza) according to the manufacturer's protocol. Approximately 12,000 transfected cells per well were plated in a 96-well plate (Corning 3904) and incubated with dTAG 47 at 1000 nM, 333 nM, 111 nM, 37 nM, 12 nM, 4 nM, 1.4 nM at 37° C. for 48 hrs. In RNP delivery, 15 pmol pre-formed RNP (Cas9 and NtLp 2xFKBP) were nucleofected and followed the protocol described above. Cells were fixed using 4% paraformaldehyde and HCS NuclearMask Blue Stain. The plate was imaged with IXM ImageXpress Automated High Content Microscope at 4× magnification under two excitation channels (blue and green). Images were analyzed in the MetaXpress software.

[2] = tested on: NtLp 2xFKBP Cas9 RNP in S2 cells; test: Analysis of Cas9 nuclease activity in Drosophila S2 cell via genomic eGFP disruption; format: cell-based; conditions: RNP delivery, dTAG-47 1000 nM, 10 nM, 0 nM, 48 hrs
Method: Approximately 200,000 S2 cells were nucleofected with 15 pmol pre-formed Cas9 RNP (NtLp 2xFKBP) using SE Cell Line 4S-Nucleofector X Kit (Lonza). Approximately 70,000 transfected S2 cells per well were plated in 96-well plate and incubated with 1000 nM and 10 nM dTAG 47. After incubation at room temperature for 48 hrs, cells were stained with HCS Nuclear Mask Blue stain, and imaged with IXM ImageXpress Automated Hifh Content Microscope at 4× magnification under two excitation channels (blue and green).

[3] = tested on: FKBP-SpCas9 constructs (NtLp 2xFKBP, NtCt 2xFKBP, LpCt 2xFKBP, 3xFKBP) in HEK293FT cells; test: Western blot analysis of FKBP-SpCas9 degradation; format: cell-based; conditions: increasing amount of dTAG-47 (0.04-3.3 uM), 24h, tubulin loading control
Method: HEK293 or NIH3T3 were transfected with pX330 FKBP-Cas9 plasmid using Lipofectamine 2000 or Lipofectamine 3000 to the manufacturer's protocol accordingly. 24 hours after transfection, cells transiently expressing the different constructs (NtLp 2xFKBP, NtCt 2xFKBP, LpCt 2xFKBP, and 3xFKBP) were incubated in either the absence or the presence of dTAG 47 (3.3 uM, 1.1 uM, 0.37 uM, 0.12 uM, 0.042 uM) for 24h before harvesting. Cells were washed with PBS and proceed to lysis in RIPA buffer. The cell suspensions were centrifuged at 16,000 g for 30 min at 4° C. 20 ug of supernatant were electrophoresed on 4-12% Bis-Tris gel with SDS-Tris running buffer. The protein bands were transferred to nitrocellulose membrane at 100V for 1 h and probed with mouse anti-Cas9 antibody (Abcam) and rabbit anti-tubulin as loading control (Abcam). After blocking and incubation with primary antibodies, membranes were incubated with 680-nm or 800-nm fluorophore labeled secondary antibodies. Protein bands were detected using LI-COR Bioisciences Odyssey Imager and analyzed by Image Studeio Lite (LI-COR Biosciences).

Row | Compound | potency in reducing NtLp 2xFKBP Cas9 activity ([1]; U2OS cells, RNP delivery, comparison of FIG. 4A and 4B) | NtLp 2xFKBP Cas9 activity (% eGFP disruption) ([1]; U2OS cells, RNP delivery) | potency in inducing degradation (eGFP disruption assay of 4 FKBP-Cas9) ([1]; plasmid delivery, comparison of FIG. 3A and 3B) | eGFP disruption by NtLp 2xFKBP Cas9 RNP [2] | potency in reducing Cas9 activity ([1]; plasmid delivery and RNP delivery (FIGS. 3A-3B, 4A-4B)) | Cas9 protein detected (degradation of FKBP-SpCas9) [3]
1 | CC[C@H](C(=O)N1CCCC[C@H]1C(=O)O[C@H](CCc1ccc(OC)c(OC)c1)c1ccccc1OCC(=O)NCCCCCCOc1cccc2c1C(=O)N(C1CCC(=O)NC1=O)C2=O)c1cc(OC)c(OC)c(OC)c1 (stereo partly shown) [dTAG-13] | less potent than dTAG-47 | reduced but not as significant | less potent than dTAG-47 |  |  | 
2 | CC[C@H](C(=O)N1CCCC[C@H]1C(=O)O[C@H](CCc1ccc(OC)c(OC)c1)c1ccccc1OCC(=O)NCCCCCCCCNc1ccc2c(c1)C(=O)N(C1CCC(=O)NC1=O)C2=O)c1cc(OC)c(OC)c(OC)c1 (stereo partly shown) [dTAG-47] |  | reduced significantly |  | less eGFP disrupted | more potent in reducing Cas9 activity | less Cas9 protein was detected; also recorded: less Cas protein was detected
